{
  "source": "patent US20240024403A1",
  "about": "“Compositions and Methods for Managing Weight” (Unigen, Inc., priority 2012, published 2024)",
  "assay": "High fat diet induced obesity (DIO) mouse model",
  "format": "in vivo, C57CL/6J mice",
  "settings": "for NSAH (sum): liver pathology",
  "procedure": "C57CL/6J mice aged 4-6 weeks (Korea Research Institute of Bioscience & Biotechnology, Ohchang, Korea) were housed in Polycarbonate cages (five mice per cage) in a room with a 12 hr:12 hr light-dark cycle and an ambient temperature of 24° C. All the mice were fed a commercial chow diet for 1 week after arrival in the animal facility. Mice were then divided into normal and obesity groups and fed with normal diet (ND) and high fat diets (HFD) respectively. The HFD group was divided into multiple treatment groups: a high fat diet vehicle group (HFD), an orlistat (purchased as OTC drug Alli®) positive control treatment group (ORI, 40 mg/kg of animal weight, 2 times/day) and optionally a sibutramine positive control treatment group (10 mg/kg, 1 time/day). The HFD contained 340 g of fat/kg of HFD (310 g lard plus 30 g soybean oil; Harlan Laboratories, USA). The HFD was formulated to provide 60% of the total energy generated by the diet from fat by replacing carbohydrate energy with lard and soybean oil, whereas the normal diet (ND) group was fed a diet providing only 18% of the total diet energy from fat(Harlan Laboratories, USA).\nBody weight was measured once each week and feed intake was measured twice per week. At the end of the experimental period, following a 12 hr. fasting period, the animals were anesthetized with ether, and blood was drawn from the abdominal vein. Liver and kidney and adipose tissues (epididymal, retroperitoneal, perirenal adipose tissues) were removed from each animal, rinsed with physiological saline, and weighed. Serum concentrations of glucose, total cholesterol, triglycerides, and LDL-cholesterol were determined using automatic analyzer (INTEGRA 400, Roche, Germany). Statistical significance of test results was measured using the Student's t-test.",
  "key": {"[1]": {"settings": "DIO mice blood biochemistry, SIB 10 mg/kg, ORI 40 mg/kg, Mutamba extract 32 (G1) 1000 mg/kg, mean"}, "[2]": {"settings": "DIO mice blood biochemistry, SIB 10 mg/kg, ORI 40 mg/kg, Mutamba extract 33-2 G1 1000 mg/kg, mean"}, "[3]": {"settings": "DIO mice liver pathology score, SIB 10 mg/kg, ORI 40 mg/kg, Mutamba extract 32 (G1) 1000 mg/kg, mean"}, "[4]": {"settings": "DIO mice, SIB 10 mg/kg, ORI 40 mg/kg, Mutamba extract 32 (G1) 1000 mg/kg, mean"}, "[5]": {"settings": "DIO mice, SIB 10 mg/kg, ORI 40 mg/kg, Mutamba extract 33-2 G1 1000 mg/kg, mean"}, "[6]": {"settings": "DIO mice, combination (1:1) 2000 mg/kg twice a day, group mean"}, "[7]": {"settings": "liver pathology score, mice fed a high fat diet, Mutamba fractions 250 mg/kg oral 2 times per day, mean"}, "[8]": {"settings": "liver pathology score, mice fed a high fat diet, Mutamba fractions 250 mg/kg oral 2 times per day, mean (table printed twice)"}, "[9]": {"settings": "mice fed a high fat diet, Mutamba fractions 250 mg/kg oral 2 times per day, mean"}, "[10]": {"settings": "sibutramine 10 mg/kg, 1 time/day"}, "[11]": {"settings": "sibutramine 10 mg/kg, 1 time/day, listed as Sibutramine"}},
  "data": [
    {"molecule": "CC(C)CC(N(C)C)C1(c2ccc(Cl)cc2)CCC1", "note": "(stereo not drawn) [SIB, sibutramine]", "values": [
      {"measurement": "ALT", "setting": "[1]", "result": 37.00, "unit": "U/L"},
      {"measurement": "AST", "setting": "[1]", "result": 65.95, "unit": "U/L"},
      {"measurement": "HDL-C", "setting": "[1]", "result": 68.73, "unit": "mg/dL"},
      {"measurement": "LDL-C", "setting": "[1]", "result": 6.18, "unit": "mg/dL"},
      {"measurement": "T-chol", "setting": "[1]", "result": 155.75, "unit": "mg/dL"},
      {"measurement": "TG", "setting": "[1]", "result": 49.75, "unit": "mg/dL"},
      {"measurement": "LDL-C", "setting": "[2]", "result": 5.26, "unit": "mg/dL"},
      {"measurement": "T-chol", "setting": "[2]", "result": 158.60, "unit": "mg/dL"},
      {"measurement": "TG", "setting": "[2]", "result": 46.60, "unit": "mg/dL"},
      {"measurement": "Hepatocellular ballooning (0-2)", "setting": "[3]", "result": 0.25},
      {"measurement": "Lobular Inflammation (0-3)", "setting": "[3]", "result": 0.50},
      {"measurement": "Steatosis (0-3)", "setting": "[3]", "result": 0.50},
      {"measurement": "NASH (sum)", "setting": "DIO mice liver pathology, sum of scores, SIB 10 mg/kg, ORI 40 mg/kg, Mutamba extract 32 (G1) 1000 mg/kg, mean", "result": 1.25},
      {"measurement": "Weight Gain 2-week", "setting": "DIO mice, 2-week, Compositions 1, 2 1300 mg/kg/day, 3, 9 1700 mg/kg/day, orlistat 40 mg/kg 2 times/day, sibutramine 10 mg/kg 1 time/day", "result": "−1.40"},
      {"measurement": "Average Feed Intake 2-week", "setting": "DIO mice, 2-week, doses as in Example 76", "result": 2.87},
      {"measurement": "Food Efficiency Ratio (FER) 2 weeks", "setting": "DIO mice, 2 weeks, Mean, Weight Gain (g/day)/Feed Intake (g/day)", "result": "−0.099"},
      {"measurement": "Weight Gain 7-week", "setting": "DIO mice, 7-week, Compositions 1, 2 1300 mg/kg/day, 3, 9 1700 mg/kg/day, orlistat 40 mg/kg 2 times/day, sibutramine 10 mg/kg 1 time/day", "result": 6.12},
      {"measurement": "Average Feed Intake 7-week", "setting": "DIO mice, 7-week, doses as in Example 76", "result": 2.67},
      {"measurement": "Food Efficiency Ratio (FER) 7 weeks", "setting": "DIO mice, 7 weeks, Mean, Weight Gain (g/day)/Feed Intake (g/day)", "result": 0.054},
      {"measurement": "Food Efficiency Ratio (FER)", "setting": "DIO mice, FER = body weight gain (g/day)/food intake (g/day), SIB 10 mg/kg, ORI 40 mg/kg, Mutamba extract 32 (G1) 1000 mg/kg, mean", "result": 0.008},
      {"measurement": "Food Efficiency Ratio (FER)", "setting": "DIO mice, FER = body weight gain (g/day)/food intake (g/day), SIB 10 mg/kg, ORI 40 mg/kg, Mutamba extract 33-2 G1 1000 mg/kg, mean", "result": 0.043},
      {"measurement": "Average Body Weight Gain", "setting": "[4]", "result": 0.021, "unit": "g/day"},
      {"measurement": "Average Food Intake", "setting": "[4]", "result": 2.724, "unit": "g/day"},
      {"measurement": "Body Weight Gain", "setting": "[5]", "result": 0.114, "unit": "g/day"},
      {"measurement": "Food Intake", "setting": "[5]", "result": 2.624, "unit": "g/day"},
      {"measurement": "FER (Food efficiency ratio)", "setting": "DIO mice, combination (1:1) 2000 mg/kg twice a day, FER = body weight gain/food intake", "result": "−0.014"},
      {"measurement": "Food Intake", "setting": "[6]", "result": 3.564, "unit": "g/day"},
      {"measurement": "Weight Gain", "setting": "[6]", "result": -0.051, "unit": "g/day"},
      {"measurement": "Hepatocellular ballooning (0-2)", "setting": "[7]", "result": 0.40},
      {"measurement": "Lobular Inflammation (0-3)", "setting": "[7]", "result": 1.60},
      {"measurement": "Steatosis (0-3)", "setting": "[7]", "result": 1.20},
      {"measurement": "Hepatocellular ballooning (0-2)", "setting": "[8]", "result": 0.40},
      {"measurement": "Lobular Inflammation (0-3)", "setting": "[8]", "result": 1.60},
      {"measurement": "Steatosis (0-3)", "setting": "[8]", "result": 1.20},
      {"measurement": "NSAH (sum)", "setting": "sum of scores, mice fed a high fat diet, Mutamba fractions 250 mg/kg oral 2 times per day, mean", "result": 3.20},
      {"measurement": "NSAH (sum)", "setting": "sum of scores, mice fed a high fat diet, Mutamba fractions 250 mg/kg oral 2 times per day, mean (table printed twice)", "result": 3.20},
      {"measurement": "FER (Food efficiency ratio)", "setting": "mice fed a high fat diet, FER = body weight gain (g/day)/food intake (g/day), Mutamba fractions 250 mg/kg oral 2 times per day, mean", "result": 0.043},
      {"measurement": "Body Weight Gain", "setting": "[9]", "result": 0.114, "unit": "g/day"},
      {"measurement": "Food Intake", "setting": "[9]", "result": 2.624, "unit": "g/day"},
      {"measurement": "blood biochemistry parameters vs HFD group", "setting": "[10]", "result": "statistically significant decrease in LDL-cholesterol"},
      {"measurement": "body weight gain vs HFD group", "setting": "[10]", "result": "statistically significant decreases in body weight gain across all weeks of the study"},
      {"measurement": "liver pathology (NASH score) vs HFD group", "setting": "[10]", "result": "statistically significant decreases in Steatosis, Lobular inflammation, Hepatocellular ballooning and NASH score"},
      {"measurement": "total body weight vs HFD group", "setting": "[10]", "result": "statistically significant decreases in total body weight from week 1, 2, 3 and 7"},
      {"measurement": "weight gain per day, food intake per day, food efficiency ratio (FER) vs HFD group", "setting": "[10]", "result": "average body weight gain per day and food efficiency ratio (FER) endpoints were significantly lowered"},
      {"measurement": "body weight gain vs HFD group", "setting": "[11]", "result": "did not"},
      {"measurement": "weight gain per day, food intake per day, food efficiency ratio (FER) vs HFD group", "setting": "[11]", "result": "statistically significant reduction of average food intake after 7 weeks of treatment"},
      {"measurement": "weight gain per day, food intake per day, food efficiency ratio (FER) vs HFD group", "setting": "sibutramine 10 mg/kg, 1 time/day, listed as sibutramine", "result": "not statistically significant"},
      {"measurement": "Total Body Weight", "setting": "week 0, SIB 10 mg/kg, DIO mice (Table 52), in g (unit assumed)", "result": 39.70},
      {"measurement": "Body Weight", "setting": "week 0, mice fed a high fat diet, Mutamba fractions 250 mg/kg oral 2 times per day, mean, in g (unit assumed)", "result": 38.41},
      {"measurement": "Body Weight Gain", "setting": "week 1, DIO mice, SIB 10 mg/kg, ORI 40 mg/kg, Mutamba extract 32 (G1) 1000 mg/kg/day oral, mean", "result": "−5.46"},
      {"measurement": "Body Weight Gain", "setting": "week 1, DIO mice, SIB 10 mg/kg, ORI 40 mg/kg, Mutamba extract 33-2 G1 1000 mg/kg, mean", "result": "−2.72"}
    ]}
  ]
}
